target: MAPK14 (human) (UniProt Q16539); experiment: Assessment of MAPK14 Kinase Activity by Fluorescence Anisotropy Kinase Binding Assay
Sequence (Q16539 whole entry, looked up): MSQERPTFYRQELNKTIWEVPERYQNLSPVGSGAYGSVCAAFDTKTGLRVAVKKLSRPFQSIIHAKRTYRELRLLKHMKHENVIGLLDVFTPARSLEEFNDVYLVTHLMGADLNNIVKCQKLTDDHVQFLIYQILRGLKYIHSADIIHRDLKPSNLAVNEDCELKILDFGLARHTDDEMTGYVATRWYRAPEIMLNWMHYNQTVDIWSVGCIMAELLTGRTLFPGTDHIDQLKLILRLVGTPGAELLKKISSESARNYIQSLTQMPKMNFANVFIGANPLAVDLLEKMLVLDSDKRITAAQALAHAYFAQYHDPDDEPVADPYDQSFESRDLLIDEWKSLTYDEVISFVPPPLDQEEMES

Structure (SMILES)	Ki [nM]	IC50 [nM]
O=c1ccc2c(-c3ccccc3Cl)nc(Br)cc2n1-c1ccccc1Cl	20	
O=c1ccc2c(-c3ccccc3Cl)nc(Cl)cc2n1-c1ccccc1Cl	20	
O=c1ccc2c(-c3ccc(F)cc3F)ccnc2n1-c1ccc(F)cc1		< 1000
O=c1ccc2c(-c3ccc(F)cc3F)cccc2n1-c1ccc(F)cc1		< 1000
O=c1ccc2c(-c3ccccc3)nccc2n1Cc1ccccc1	20	
O=c1ccc2c(-c3ccc(F)cc3)cccc2n1-c1ccc(F)cc1		< 1000
O=c1ccc2c(-c3ccc(F)cc3)ccnc2n1-c1ccc(F)cc1		< 1000
O=c1ccc2c(-c3ccccc3Cl)cc(NC(CO)CO)cc2n1-c1ccccc1Cl	20	
COc1cc2c(ccc(=O)n2-c2ccccc2Cl)c(-c2ccccc2Cl)c1Br	12.6	
O=c1ccc2c(-c3ccccc3F)cccc2n1-c1ccc(F)cc1		< 1000
O=c1ccc2c(-c3ccccc3)nccc2[nH]1		< 1000

Source: the Kinase Knowledgebase extract (Sharma et al. 2016)
